Experimental data from PubChem BioAssay (NCI).
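Where inhibition never reached the appropriate level, the endpoint shown equals the highest concentration tested. Otherwise, values were interpolated linearly from a five-concentration, 48-hour dose response in 96-well plates. Definition used: TGI = concentration required for complete inhibition of growth.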

Assays:
Assay in all cases: DTP human tumour cell line panel, 48 h
[1] = system: KM20L2 colon
[2] = system: TK-10 renal
[3] = system: LXFL 529 NSCLC
[4] = system: DMS 114 small cell lung
[5] = system: SNB-78 CNS
[6] = system: DLD-1 colon
[7] = system: HOP-18 NSCLC
[8] = system: M19-MEL melanoma
[9] = system: RXF-631 renal
[10] = system: SK-OV-3 ovarian
[11] = system: RPMI-8226 leukemia
[12] = system: SR leukemia
[13] = system: XF 498 CNS
[14] = system: SF-539 CNS
[15] = system: NCI-H226 lung
[16] = system: DMS 273 small cell lung
[17] = system: MDA-MB-231 breast

`O=c1cc(-c2ccccc2)oc2cc(OCCSCCCCCCCCCCSCCOc3ccc4c(=O)cc(-c5ccccc5)oc4c3)ccc12` was tested. Which TGI [1] did it give?
Its TGI is over 100 µM.

And the TGI [2]?
Its TGI is over 100 µM.

What about the TGI [3] of the same compound?
Its TGI is over 100 µM.

And the TGI [4]?
Its TGI is over 100 µM.

And the TGI [5]?
Its TGI is over 100 µM.

And the TGI [6]?
The TGI was over 100 µM.

What about the TGI [7] of the same compound?
Its TGI is over 100 µM.

What about the TGI [8] of the same compound?
Its TGI is over 100 µM.

And the TGI [9]?
The TGI was over 100 µM.

And the TGI [10]?
The TGI was over 100 µM.

What about the TGI [11] of the same compound?
The TGI was over 100 µM.

And the TGI [12]?
Its TGI is over 100 µM.

`N=C(N)SCc1cccc2c(=O)cc(-c3ccccc3)oc12` was tested. Which TGI [13] did it give?
The TGI was 28.4 µM.

And the TGI [1]?
The TGI was 45.6 µM.

What about the TGI [2] of the same compound?
The TGI was 26.8 µM.

What about the TGI [14] of the same compound?
The TGI was 20.9 µM.

And the TGI [15]?
The TGI was 58 µM.

And the TGI [4]?
Its TGI is 31.1 µM.

And the TGI [5]?
The TGI was 31.7 µM.

What about the TGI [6] of the same compound?
Its TGI is 48.5 µM.

And the TGI [16]?
The TGI was 27.7 µM.

And the TGI [8]?
The TGI was 49.9 µM.

And the TGI [9]?
The TGI was 28.5 µM.

What about the TGI [10] of the same compound?
The TGI was 30.5 µM.

And the TGI [11]?
The TGI was 18.4 µM.

And the TGI [17]?
Its TGI is 21.4 µM.

And the TGI [12]?
Its TGI is over 100 µM.

Which results are given for `CC(=O)Nc1ccc(C(=O)NN2C(=O)C(Cl)C2c2ccccc2O)cc1` (stereo not drawn)?
TGI [13]: > 100 µM; TGI [1]: > 100 µM; TGI [2]: > 100 µM; TGI [3]: > 100 µM; TGI [14]: > 100 µM; TGI [15]: > 100 µM; TGI [6]: > 100 µM; TGI [16]: > 100 µM; TGI [10]: > 100 µM

What does the source list for `COc1c(O)c2c(=O)cc(OC)c3c4c(OC)cc(=O)c5c(O)c(OC)c6c(c(c1C(C(C)=O)C6C(C)O)c23)c54` (stereo not drawn)?
TGI [2]: 3.65 µM; TGI [14]: 1.87 µM; TGI [15]: 3.65 µM; TGI [10]: 2.49 µM; TGI [11]: 1.28 µM; TGI [17]: 1.88 µM; TGI [12]: 1.93 µM

What does the source list for `CC1OC(OC2C(O)COC(OC3C(C)OC(OC4C(OC(=O)[C@]56CCC(C)(C)C[C@@H]5C5=CCC7[C@@]8(C)C[C@H](O)[C@H](OC9OC(CO)C(O)C(OC%10OC(CO)C(O)C(O)C%10O)C9O)[C@@](C)(CO)[C@@H]8CC[C@@]7(C)[C@]5(C)CC6)OCC(O)C4O)C(O)C3O)C2O)C(O)C(O)C1O` (stereo partly drawn)?
TGI [2]: 34.2 µM; TGI [14]: 34.4 µM; TGI [15]: 42.9 µM; TGI [10]: 30.3 µM; TGI [11]: 51.8 µM; TGI [17]: 31.2 µM; TGI [12]: 25.8 µM

Which TGI [2] does the source give for `NC(N)=NCCCC(NC(=O)OCCCCCCn1ccc(N)nc1=O)C(=O)O` (stereo not drawn) here?
The TGI was over 100 µM.

And the TGI [14]?
Its TGI is over 100 µM.

What about the TGI [15] of the same compound?
The TGI was 33.6 µM.

What about the TGI [10] of the same compound?
The TGI was over 100 µM.

What about the TGI [11] of the same compound?
The TGI was over 100 µM.

And the TGI [17]?
The TGI was over 100 µM.

What about the TGI [12] of the same compound?
Its TGI is over 100 µM.

What does the source list for `COc1ccc(Cc2nccc3cc(OC)c(OC)cc23)cc1OC`?
TGI [2]: > 100 µM; TGI [14]: > 100 µM; TGI [15]: > 100 µM; TGI [10]: > 100 µM; TGI [11]: > 100 µM; TGI [17]: > 100 µM; TGI [12]: > 100 µM

Which TGI [2] does the source give for `Cc1cc(NS(=O)(=O)c2ccc(Nc3c4ccccc4nc4ccc(C(=O)Nc5ccc(S(N)(=O)=O)cc5)cc34)cc2)no1` here?
Its TGI is over 100 µM.

What about the TGI [14] of the same compound?
The TGI was over 100 µM.

And the TGI [15]?
The TGI was over 100 µM.

And the TGI [10]?
The TGI was over 100 µM.

What about the TGI [11] of the same compound?
Its TGI is over 100 µM.

What about the TGI [17] of the same compound?
The TGI was over 100 µM.

What about the TGI [12] of the same compound?
The TGI was over 100 µM.

Which results are given for `OC1CN2Cc3cc4c(cc3[C@]13C=C[C@@H](O)CC23)OCO4` (stereo partly drawn)?
TGI [2]: 93.3 µM; TGI [14]: > 100 µM; TGI [15]: > 100 µM; TGI [10]: > 100 µM; TGI [11]: > 100 µM; TGI [17]: > 100 µM; TGI [12]: > 100 µM

Which TGI [2] does the source give for `COc1ccc([C@@]23OC[C@@H]4[C@@H](OC[C@@H]42)c2cc(OC)c(OC)cc23)cc1OC` here?
The TGI was over 100 µM.

And the TGI [14]?
Its TGI is over 100 µM.

What about the TGI [15] of the same compound?
Its TGI is over 100 µM.

What about the TGI [10] of the same compound?
The TGI was over 100 µM.

And the TGI [11]?
The TGI was over 100 µM.

What about the TGI [17] of the same compound?
Its TGI is over 100 µM.

And the TGI [12]?
Its TGI is over 100 µM.

What does the source list for `CCOC(=O)C1=C(C)N(NC(N)=O)C2(O)CCCC(=O)C12C` (stereo not drawn)?
TGI [13]: > 100 µM; TGI [1]: > 100 µM; TGI [2]: > 100 µM; TGI [3]: > 100 µM; TGI [14]: > 100 µM; TGI [15]: > 100 µM; TGI [4]: > 100 µM; TGI [5]: > 100 µM; TGI [6]: > 100 µM; TGI [16]: > 100 µM; TGI [7]: > 100 µM; TGI [9]: > 100 µM; TGI [10]: > 100 µM; TGI [11]: > 100 µM

With `COc1cc(/C=C/c2cc(/C=C/c3ccc(O)c(OC)c3)oc(=O)c2)ccc1O` as the compound, how does the TGI [2] read?
Its TGI is over 30 µM.

What about the TGI [14] of the same compound?
Its TGI is over 100 µM.

And the TGI [15]?
The TGI was 61.1 µM.

And the TGI [10]?
Its TGI is over 65.2 µM.

And the TGI [11]?
Its TGI is over 20.5 µM.

What about the TGI [17] of the same compound?
The TGI was over 96.2 µM.

And the TGI [12]?
Its TGI is over 31.2 µM.

How did the TGI [2] turn out when `COc1cc2c(cc1OCc1ccccc1)NC(=S)[C@@H]1CCCN1C2=S` was run?
The TGI was over 100 µM.

What about the TGI [14] of the same compound?
Its TGI is over 100 µM.

And the TGI [15]?
The TGI was over 100 µM.

What about the TGI [10] of the same compound?
The TGI was over 100 µM.

What about the TGI [11] of the same compound?
Its TGI is over 100 µM.

And the TGI [17]?
The TGI was over 100 µM.

And the TGI [12]?
The TGI was over 100 µM.
